Source: patent US20160137639A1, “TRIAZOLE-ISOXAZOLE COMPOUND AND MEDICAL USE THEREOF” (JAPAN TOBACCO INC., priority 2012, published 2016)
Like-named read-outs stand apart in the source and are kept apart here.

Assays:
human RORγ = target: T1, human RORγ (Homo sapiens, UniProt P51449); test: Luciferase reporter gene assay of inhibitory effect against RORγ transcriptional activity (GAL4-hRORγ plasmid in CHO cells); format: cell-based
T1 construct: human, NM_005060.3 and from Ser253 to Lys518; expressed in transfected cells; host or cells: CHO cells (transient co-transfection with pG5-Luc reporter)
T1 sequence (P51449 253-518): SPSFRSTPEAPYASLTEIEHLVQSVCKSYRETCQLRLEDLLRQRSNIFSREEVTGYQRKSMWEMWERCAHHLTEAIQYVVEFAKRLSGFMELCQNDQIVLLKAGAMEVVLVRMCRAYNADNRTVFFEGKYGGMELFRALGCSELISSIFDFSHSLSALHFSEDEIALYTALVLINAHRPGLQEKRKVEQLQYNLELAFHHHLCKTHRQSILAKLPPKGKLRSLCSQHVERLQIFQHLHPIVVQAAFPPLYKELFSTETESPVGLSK

mouse RORγ = target: T2, mouse RORγ (Mus musculus, UniProt P51450); test: Luciferase reporter gene assay of inhibitory effect against RORγ transcriptional activity (GAL4-mRORγ plasmid in CHO cells); format: cell-based
T2 construct: mouse, NM_011281.2 and from Ile251 to Lys516; expressed in transfected cells; host or cells: CHO cells (transient co-transfection with pG5-Luc reporter)
T2 sequence (P51450 251-516): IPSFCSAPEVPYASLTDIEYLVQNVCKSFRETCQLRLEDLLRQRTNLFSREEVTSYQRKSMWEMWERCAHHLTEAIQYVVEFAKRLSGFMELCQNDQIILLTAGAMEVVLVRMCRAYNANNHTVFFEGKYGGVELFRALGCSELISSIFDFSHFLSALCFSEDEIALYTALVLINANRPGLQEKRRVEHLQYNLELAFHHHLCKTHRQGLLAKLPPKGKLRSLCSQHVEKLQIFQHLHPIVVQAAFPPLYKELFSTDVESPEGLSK
How it was run: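 Readout is intracellular luciferase after 2-day compound exposure (8 concentrations, 0.1% DMSO) in CHO cells expressing GAL4 fused to mouse RORγ LBD residues Ile251–Lys516 plus pG5-Luc reporter. EC50 fitted from %-of-control; points showing resazurin-detected cytotoxicity dropped.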

| Structure (SMILES) | EC50 (human RORγ; read-out: LUC EC50 hRORg) [µM] | EC50 (mouse RORγ; read-out: LUC EC50 mRORg) [µM] | EC50 (human RORγ; read-out: LUC EC50 (μM) hRORg) [µM] | EC50 (mouse RORγ; read-out: LUC EC50 (μM) mRORg) [µM] |
| --- | --- | --- | --- | --- |
| Cc1ccc(NC(=O)CCc2noc(C3(O)CC(CC(C)(C)C)C3)c2C2CC2)c(Cl)c1 (mixture of isomers) [Example F-732] | < 3 | < 3 |  |  |
| Cc1ccc(NC(=O)C[C@H](CCC(=O)O)c2onc(-c3cc(C(F)(F)C(C)(C)C)on3)c2C2CC2)c(Cl)c1 [Example E-52, Sodium (S)-5-(2-chloro-4-methyl-phenylcarbamoyl)-4-[4-cyclopropyl-5′-(1,1-difluoro-2,2-dimethylpropyl)-[3,3′]biisoxazolyl-5′-yl]pentanoate] |  |  | < 3 | < 3 |
| Cc1ccncc1NC(=O)CCc1nnc(CCC(C)C)n1C1CC1 [Example F-90] |  |  | > 3 | > 3 |
| Cc1ccc(NC(=O)C[C@H](CCO)c2noc([C@H]3C[C@@H](CC(C)C)C3)c2C2CC2)c(C)c1 [Example F-578] | < 3 | < 3 |  |  |
| Cc1ccc(NC(=O)C[C@H](CCC(=O)O)c2noc(-c3cc(C4CCCC4)on3)c2C2CC2)c(Cl)c1 [Example E-24] |  |  | < 3 | < 3 |
| Cc1ccc(NC(=O)[C@H]2CN(c3nc(C)cs3)C[C@@H]2c2nnc(CCCC(C)(C)C)n2C2CC2)c(C)c1 (racemic) [Example F-448] |  |  | < 3 | < 3 |
| C=CCC(CC(=O)Nc1cccc(Cl)c1C)c1nnc(CCCC(C)C)n1C1CC1 (racemic) [Example F-197] |  |  | < 3 | < 3 |
| CC(=O)N1C[C@H](C(=O)Nc2ccc(C)cc2C)[C@@H](c2nnc(C3CC4(CCCCC4)C3)n2C2CC2)C1 (racemic) [Example F-452] |  |  | < 3 | < 3 |
| Cc1ccc(NC(=O)C[C@H](CCC(=O)O)c2noc(-c3cn(CCC(C)(C)C)nc3C(F)(F)F)c2C2CC2)c(F)c1 [Example E-19] |  |  | > 3 | > 3 |
| Cc1ccc(NC(=O)C[C@H](CC(=O)O)c2noc([C@H]3C[C@@H](CC(C)C)C3)c2C2CC2)cn1 [Example F-667] | > 3 | < 3 |  |  |
| Cc1ccc(NC(=O)CC(Cc2ccccc2)c2nnc(CCCC(C)(C)C)n2C2CC2)c(C)c1 (racemic) [Example F-436] |  |  | < 3 | < 3 |
| Cc1c(Cl)cccc1NC(=O)CC(CCO)c1nnc(CCC2CCCCC2)n1C1CC1 (racemic) [Example F-247] |  |  | < 3 | < 3 |
| CC(C)(C)C[C@H]1C[C@@H](c2onc([C@@H](CCC(=O)O)CC(=O)NS(=O)(=O)C3CC3)c2C2CC2)C1 [Example F-722] | > 3 | > 3 |  |  |
| Cc1ccc(NC(=O)CC(c2nnc([C@H]3C[C@@H](CC(C)C)C3)n2C2CC2)C2CNC2)c(C)c1 (mixture of isomers) [Example F-468] |  |  | > 3 | > 3 |
| Cc1cnccc1NC(=O)CCc1nnc(CCC(C)C)n1C1CC1 [Example F-89] |  |  | > 3 | > 3 |
| Cc1ccc(Br)cc1NC(=O)CCc1nnc(CCC(C)C)n1C1CC1 [Example F-140] |  |  | > 3 | > 3 |
| Cc1c(Cl)cccc1NC(=O)CCc1nnc(CC[C@H]2CC[C@H](C(=O)N(C)C)CC2)n1C1CC1 [Example F-258] |  |  | > 3 | > 3 |
| Cc1c(Cl)cccc1NC(=O)CC(CCN1C(=O)c2ccccc2C1=O)c1nnc(CCCC(C)C)n1C1CC1 (racemic) [Example F-224] |  |  | < 3 | < 3 |
| CC(=O)N1C[C@H](C(=O)Nc2ccc(C)cc2C)[C@@H](c2nnc(CCC(C)(C)C)n2C2CC2)C1 (racemic) [Example F-223] |  |  | < 3 | < 3 |
| Cc1ccc(NC(=O)C[C@H](CCC(=O)O)c2noc(-c3cc(C(F)(F)C(C)(C)C)on3)c2C2CC2)c(Cl)c1 [Example E-40] |  |  | < 3 | < 3 |
| Cc1ccc(NC(=O)C[C@H](CCCO)c2nnn([C@H]3C[C@@H](CC(C)(C)C(C)C)C3)c2C2CC2)c(F)c1 [Example F-709] | < 3 | < 3 |  |  |
| Cc1cc(F)ccc1NC(=O)C[C@H](CC(=O)NS(C)(=O)=O)c1noc([C@H]2C[C@@H](CC(C)C)C2)c1C1CC1 [Example F-637] | < 3 | < 3 |  |  |
| Cc1cc(NC(=O)C[C@H](CC(=O)O)c2noc([C@H]3C[C@@H](CC(C)C)C3)c2C2CC2)no1 [Example F-670] | > 3 | < 3 |  |  |
| Cc1ccc(NC(=O)C[C@H](CCO)c2nnc(CCC3CCCCC3)n2C2CC2)c(C)c1 [Example F-385] |  |  | < 3 | < 3 |
| Cc1cc(Cl)ccc1NC(=O)C[C@H](CCO)c1nnc(C2CC3(CCC(F)(F)CC3)C2)n1C1CC1 [Example F-624] | < 3 | < 3 |  |  |
